Laboratory results published in US20240190828A1, “Small Molecule Inhibitors of PBRM1-BD2” (The Medical College of Wisconsin, Inc., priority 2021, published 2024).

Tests used:
ASH1L = ASH1L (Homo sapiens (Human), UniProt Q9NR48); experiment: DSF selectivity profiling; type: binding
Method: (§1) Differential Scanning Fluorimetry (DSF). Bromodomain DSF Tm assays were performed using an Mx3005P (Stratagene) PCR detection system and low profile 96-well PCR plates (UltraFlux, Flat Top, SSI 3400-00S). […] The temperature was raised by 1° C./min from 25-95° C., and fluorescence readings were taken at each interval. Melting curves were analyzed using our online interactive fitting tool for thermofluor experiments (https://dsf-analysis.herokuapp.com/DSF-analysis) and plotted using GraphPad Prism.

BRD2-BD2 = BRD2-BD2 (Homo sapiens (Human), UniProt P25440); experiment: DSF selectivity profiling; type: binding
Sequence of BRD2-BD2 (P25440 344-453): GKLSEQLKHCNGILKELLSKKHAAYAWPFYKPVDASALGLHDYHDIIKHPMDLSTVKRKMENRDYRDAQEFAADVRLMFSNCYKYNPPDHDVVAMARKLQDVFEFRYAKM
Method: as §1

BRD3-BD1 = BRD3-BD1 (Homo sapiens (Human), UniProt Q15059); experiment: DSF selectivity profiling; type: binding
Sequence of BRD3-BD1 (Q15059 34-140): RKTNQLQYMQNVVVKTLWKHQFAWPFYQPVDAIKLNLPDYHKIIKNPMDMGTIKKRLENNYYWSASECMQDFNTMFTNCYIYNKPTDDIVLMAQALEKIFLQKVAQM
Method: as §1

BRD3-BD2 = BRD3-BD2 (Homo sapiens (Human), UniProt Q15059); experiment: DSF selectivity profiling; type: binding
Sequence of BRD3-BD2 (Q15059 306-415): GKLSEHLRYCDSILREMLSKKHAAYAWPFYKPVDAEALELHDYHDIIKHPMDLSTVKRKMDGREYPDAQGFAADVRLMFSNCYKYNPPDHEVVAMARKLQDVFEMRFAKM
Method: as §1

BRD4-BD1 = BRD4-BD1 (Homo sapiens (Human), UniProt O60885); experiment: DSF selectivity profiling; type: binding
Method: as §1

BRD4-BD2 = BRD4-BD2 (Homo sapiens (Human), UniProt O60885); experiment: DSF selectivity profiling; type: binding
Method: as §1

BRD7 = BRD7 (Homo sapiens (Human), UniProt Q9NPI1); experiment: DSF selectivity profiling; type: binding
Sequence of BRD7 (Q9NPI1 131-235): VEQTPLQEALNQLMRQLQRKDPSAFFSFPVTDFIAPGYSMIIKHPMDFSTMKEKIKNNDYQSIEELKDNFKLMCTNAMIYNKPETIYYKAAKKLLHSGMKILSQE
Method: as §1

BRDT-BD1 = BRDT-BD1 (Homo sapiens (Human), UniProt Q58F21); experiment: DSF selectivity profiling; type: binding
Method: as §1

CECR2 = CECR2 (Homo sapiens (Human), UniProt Q9BXF3); experiment: DSF selectivity profiling; type: binding
Sequence of CECR2 (Q9BXF3 434-538): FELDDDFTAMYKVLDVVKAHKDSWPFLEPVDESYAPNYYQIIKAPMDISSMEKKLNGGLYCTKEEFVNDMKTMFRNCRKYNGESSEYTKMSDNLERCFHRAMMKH
Method: as §1

CREBBP = CREBBP (Homo sapiens (Human), UniProt Q92793); experiment: DSF selectivity profiling; type: binding
Sequence of CREBBP (Q92793 1085-1192): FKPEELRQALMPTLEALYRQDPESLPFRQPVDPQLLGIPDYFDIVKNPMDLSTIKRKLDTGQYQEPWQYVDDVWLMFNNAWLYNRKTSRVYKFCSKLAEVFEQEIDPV
Method: as §1

PCAF = PCAF (Homo sapiens (Human), UniProt Q92831); experiment: DSF selectivity profiling; type: binding
Sequence of PCAF (Q92831 723-827): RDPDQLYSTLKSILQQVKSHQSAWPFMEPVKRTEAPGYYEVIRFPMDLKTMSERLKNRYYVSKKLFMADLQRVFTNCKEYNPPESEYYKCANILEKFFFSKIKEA
Method: as §1

SMARCA4 [1] = biological target: T1, SMARCA4 (Homo sapiens (Human), UniProt P51532); experiment: DSF selectivity profiling; type: binding
T1 sequence (P51532 1453-1564): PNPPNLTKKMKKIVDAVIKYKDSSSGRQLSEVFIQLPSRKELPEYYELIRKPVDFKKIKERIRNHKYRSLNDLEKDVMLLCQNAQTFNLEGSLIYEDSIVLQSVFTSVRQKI
Method: as §1

TRIM33A = TRIM33A (Homo sapiens (Human), UniProt Q9UPN9); experiment: DSF selectivity profiling; type: binding
Sequence of TRIM33A (Q9UPN9 957-1080): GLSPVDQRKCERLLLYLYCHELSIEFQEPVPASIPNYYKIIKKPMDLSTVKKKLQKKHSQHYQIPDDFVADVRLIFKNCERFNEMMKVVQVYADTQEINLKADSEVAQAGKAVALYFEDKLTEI
Method: as §1

p300 = p300 (Homo sapiens (Human), UniProt Q09472); experiment: DSF selectivity profiling; type: binding
Sequence of p300 (Q09472 1049-1156): as the sequence (Q92793 1085-1192) above, with N47S, V73I, F93Y, A98S counted along it
Method: as §1

SMARCA2 [2] = biological target: T2, SMARCA2 (Homo sapiens (Human), UniProt P51531); experiment: Isothermal titration calorimetry (ITC); type: binding; conditions: NB = did not bind
T2 sequence (P51531 1378-1506): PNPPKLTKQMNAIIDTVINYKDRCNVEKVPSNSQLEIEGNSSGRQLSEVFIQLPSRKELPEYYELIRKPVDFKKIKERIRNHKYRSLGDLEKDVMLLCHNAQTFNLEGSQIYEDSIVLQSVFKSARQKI
Method: (§3) Binding affinities of inhibitors towards PBRM1-BD2, PBRM1-BD5, SMARCA2, SMARCA4, and ASH1L were determined using a VP-ITC instrument (MicroCal). […] Protein concentrations were determined via the method of Bradford.^1 The buffer used for all ITC experiments consisted of 50 mM HEPES (pH 7.5 at 20° C.), 500 mM NaCl, 5% v/v glycerol, and 1% v/v DMSO; except for experiments involving PBRM1-BD2 whose buffer consisted of 100 mM Na2PO4 (pH 7.5 at 20° C.), 100 mM NaCl, 5% v/v glycerol, and 1% v/v DMSO. Kd values were determined by least-squares fitting to the raw data using Origin (OriginLab).

SMARCA4 [3] = biological target: T1, SMARCA4; experiment: Isothermal titration calorimetry (ITC); type: binding; conditions: NB = did not bind
Method: as §3

[4] = tested on: other tested bromodomains; experiment: DSF selectivity panel of 22 bromodomains; type: binding, human; conditions: bromodomains other than PBRM1-BD2, -BD3, -BD5
Method: as §1

SMARCA2 [5] = biological target: T2, SMARCA2; experiment: DSF selectivity profiling; type: binding
Method: as §1

HEK293T cells = experiment: Cell viability assay (CellTiter-Glo); type: cell-based, human; conditions: dose curve
Method: (§2) Cell Viability Assays. Cells were seeded in a 96-well plate and incubated for 12-24 h prior to initial treatment. The number of cells per well was chosen empirically based on cell growth rates (LNCaP-5,000 cells/well, PC3 and RWPE-1-3,000 cells per well, HEK293T-1,000 cells/well). Cells were treated with either DMSO control or serial dilutions of inhibitors and media with compound was refreshed every 48 h.

PC3 cells = experiment: Cell viability assay (CellTiter-Glo); type: cell-based, human; conditions: 10, 1 and 0.1 μM
Method: as §2

RWPE-1 cells = experiment: Cell viability assay (CellTiter-Glo); type: cell-based, human; conditions: 10, 1 and 0.1 μM
Method: as §2

| Structure (SMILES) | ASH1L ΔTm (ASH1L) | BRD2-BD2 ΔTm (BRD2-BD2) | BRD3-BD1 ΔTm (BRD3-BD1) | BRD3-BD2 ΔTm (BRD3-BD2) | BRD4-BD1 ΔTm (BRD4-BD1) | BRD4-BD2 ΔTm (BRD4-BD2) | BRD7 ΔTm (BRD7) | BRDT-BD1 ΔTm (BRDT-BD1) | CECR2 ΔTm (CECR2) | CREBBP ΔTm (CREBBP) | PCAF ΔTm (PCAF) | TRIM33A ΔTm (TRIM33A) | p300 ΔTm (p300) | further results |
| --- | --- | --- | --- | --- | --- | --- | --- | --- | --- | --- | --- | --- | --- | --- |
| Cc1ccccc1C1NC(=O)c2c(Cl)cccc2N1 (stereo not shown) [Compound 15, 5-Chloro-2-(2-methylphenyl)-2,3-dihydroquinazolin-4(1H)-one] | −0.6 °C | 0.6 °C | 0.3 °C | 0.4 °C | 0.1 °C | −3.3 °C | 0.2 °C | −0.7 °C | −0.5 °C | 0.5 °C | 0.5 °C | 0.8 °C | 0.2 °C | SMARCA4 ΔTm (SMARCA4 [1]): did not exhibit detectable thermal stabilization or binding affinity; Kd SMARCA2 (SMARCA2 [2]): did not exhibit detectable thermal stabilization or binding affinity; Kd SMARCA4 (SMARCA4 [3]): did not exhibit detectable thermal stabilization or binding affinity; thermal stabilization against other tested bromodomains [4]: < 1 °C |
| Cc1cccc(C2NC(=O)c3c(Cl)cccc3N2)c1C (stereo not shown) [Compound 25, 5-Chloro-2-(2,3-dimethylphenyl)-2,3-dihydroquinazolin-4(1H)-one] | −0.8 °C | 0.2 °C | 0.4 °C | 0.4 °C | 0.6 °C | −4.2 °C | 0.0 °C | 0.1 °C | 0.8 °C | 0.6 °C | 0.1 °C | 0.3 °C | 0.6 °C | SMARCA2 ΔTm (SMARCA2 [5]): 0.0 °C; growth inhibition of HEK293T cells (HEK293T cells): also inhibits the PC3, RWPE1, and HEK293T cells similarly; growth inhibition of PC3 cells (PC3 cells): also inhibits the PC3, RWPE1, and HEK293T cells similarly; growth inhibition of RWPE1 cells (RWPE-1 cells): also inhibits the PC3, RWPE1, and HEK293T cells similarly |
